Measurements reported in patent US9913861B2 (priority 2013, dated 2018).
Counter-ions that a name gives are not always drawn.

Assays:
[1] = test system: Human rhinovirus type 14 (HRV14, major group); assay type: cell-based
[2] = in vivo; cited from earlier work
[3] = test system: BGM, HEp-2 and HeLa cells
[4] = test system: Human herpesvirus type 1 (HSV1); assay type: cell-based
[5] = test system: Human respiratory syncytial virus, Long strain (RSV); assay type: cell-based
[6] = test system: Human coxsackievirus type 9 (CA9); assay type: cell-based
[7] = test system: herpesviruses and influenza viruses; settings: cited from earlier work

Compound | percentage plaque inhibition [1] | percentage plaque inhibition [4] | plaque inhibition of the individual substances [4] | percentage plaque inhibition [5] | percentage plaque inhibition [6] | other results
aconitine | −1.14/2.84% | 3.17/11.22% | approximately 8% | 9.01/16.56% | 8.40/10.69% | lethal dose [2]: approximately 5 mg; non-cell-toxic concentration (start of dilution series) [3]: 50 µg/mL
NC(=O)c1ncn([C@@H]2O[C@H](CO)[C@@H](O)[C@H]2O)n1 [ribavirin, Ribavirin] |  |  |  |  |  | reduction in infectivity [5]: 50-60%
CN1[C@@H]2CC[C@H]1C[C@@H](OC(=O)C(CO)c1ccccc1)C2 (stereo partly shown) [atropine] |  |  |  |  |  | concentration at which the maximum antiviral effect is achieved [7]: 2 mM
Nc1nc2c(ncn2COCCO)c(=O)[nH]1 [aciclovir, Aciclovir] |  |  |  |  |  | reduction in infectivity [4]: 50-60%
CN1[C@@H]2CC[C@H]1CC(OC(=O)C(CO)c1ccccc1)C2.CN1[C@@H]2CC[C@H]1CC(OC(=O)C(CO)c1ccccc1)C2.O=S(=O)(O)O (stereo partly shown) [Atropine sulphate, atropine sulphate] | 11.30/14.12% | 19.52/41.90% | approximately 35% | 7.74/12.36% | 7.63/12.85% | 
Cc1cc(C(C)(C)C)c(O)c(C)c1CC1=NCCN1 [OMZ, Oxymetazoline hydrochloride] |  |  |  |  |  | reduction in infectivity [1]: 50-60%
